{"source": "patent US20210204544A1", "about": "“AGROCHEMICAL FORMULATIONS CONTAINING A POLYMERIC CRYSTAL GROWTH INHIBITOR” (priority 2018, published 2021)", "assay": "Crystal growth of micronized fluopyram crystals suspended in water, with or without polymeric crystal growth inhibitor, on accelerated aging (FIG. 1)", "format": "physicochemical", "conditions": "54° C.; observed at 4 days, 35 days, then additional 2 weeks cycling -20° C./40° C.; Rhodoline 111 at 3% w/w, HPMC at 0.2% w/w", "procedure": "FIG. 1 depicts the effect of polymeric crystal growth inhibitor on active ingredient while suspended in water. […] Polymeric crystal growth inhibitors were evaluated by suspending micronized fluopyram active ingredient crystal in water.", "data": [{"smiles": "O=C(NCCc1ncc(C(F)(F)F)cc1Cl)c1ccccc1C(F)(F)F", "note": "[fluopyram, N-[2-[3-chloro-5-(trifluoromethyl)pyridin-2-yl]ethyl]-2-(trifluoromethyl)benzamide]", "values": [{"measurement": "crystal growth of fluopyram crystals suspended in water", "value": "severe needle-shaped crystal growth"}]}]}
